Reference: ChEMBL document CHEMBL1142497, “Emerging protein targets for anticancer metallodrugs: inhibition of thioredoxin reductase and cathepsin B by antitumor ruthenium(II)-arene compounds” (J Med Chem, 2008)

How the values were obtained:
[1] = target: T1, Thioredoxin reductase 1, cytoplasmic (Rattus norvegicus, UniProt O89049)
T1 sequence (O89049 whole entry): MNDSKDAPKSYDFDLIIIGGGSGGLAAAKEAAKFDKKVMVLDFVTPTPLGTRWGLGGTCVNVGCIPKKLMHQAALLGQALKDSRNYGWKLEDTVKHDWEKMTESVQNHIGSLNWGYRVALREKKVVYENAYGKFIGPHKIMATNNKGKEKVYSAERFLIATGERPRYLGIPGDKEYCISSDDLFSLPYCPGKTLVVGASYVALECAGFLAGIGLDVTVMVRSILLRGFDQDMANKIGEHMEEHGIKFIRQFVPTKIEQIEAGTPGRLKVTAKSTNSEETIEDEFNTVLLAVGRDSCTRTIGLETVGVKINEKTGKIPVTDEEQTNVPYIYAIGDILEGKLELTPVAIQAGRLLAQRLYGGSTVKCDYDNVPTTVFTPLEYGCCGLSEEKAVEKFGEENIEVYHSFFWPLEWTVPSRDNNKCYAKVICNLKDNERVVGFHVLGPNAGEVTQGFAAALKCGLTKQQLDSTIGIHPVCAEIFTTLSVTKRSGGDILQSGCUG

[2] = target: Thioredoxin reductase 2, mitochondrial (Rattus norvegicus, UniProt Q9Z0J5)
Chain of Thioredoxin reductase 2, mitochondrial (Q9Z0J5 whole entry): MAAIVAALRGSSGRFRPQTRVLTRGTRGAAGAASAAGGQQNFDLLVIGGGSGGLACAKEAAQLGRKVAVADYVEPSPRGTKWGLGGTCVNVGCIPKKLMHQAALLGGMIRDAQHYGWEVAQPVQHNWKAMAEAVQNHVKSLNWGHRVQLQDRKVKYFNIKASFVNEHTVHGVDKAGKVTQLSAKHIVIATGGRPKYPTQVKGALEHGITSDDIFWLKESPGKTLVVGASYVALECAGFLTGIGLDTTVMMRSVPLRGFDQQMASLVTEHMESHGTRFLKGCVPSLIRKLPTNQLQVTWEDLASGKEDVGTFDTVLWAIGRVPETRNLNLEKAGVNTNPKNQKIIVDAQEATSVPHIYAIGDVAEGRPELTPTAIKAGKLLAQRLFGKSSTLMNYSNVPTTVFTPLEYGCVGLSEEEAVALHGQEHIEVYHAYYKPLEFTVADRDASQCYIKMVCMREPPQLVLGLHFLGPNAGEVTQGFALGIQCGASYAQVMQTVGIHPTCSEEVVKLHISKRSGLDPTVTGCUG

## O=C(O)C1(C(=O)O)CCC1
[1]
  IC50: > 200 µM
[2]
  IC50: > 200 µM
